According to article PMC9532703, “A novel small molecule RK-019 inhibits FGFR2-amplification gastric cancer cell proliferation and induces apoptosis in vitro and in vivo” (Frontiers in Pharmacology, 2022):

Key:
Experiment in all cases: Kinase selectivity panel
Type in all cases: biochemical
CaMKI(h) = molecular target: T1, CaMKI(h) (Homo sapiens, UniProt Q14012); details: read-out: Inhibition(%) @ 1 µM RK-019
T1 construct: purchased Eurofins Discovery Services (KinaseProfiler)
Summary of the method: (§1)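 Selectivity profiling used one concentration (1 µM) in an ATP-site competition binding assay over 422 recombinant human kinases; data given as inhibition ratio.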

MLK2(h) = molecular target: T2, MLK2(h) (Homo sapiens, UniProt Q02779); details: read-out: Inhibition(%) @ 1 µM RK-019
T2 construct: purchased Eurofins Discovery Services (KinaseProfiler)
Summary of the method: as §1

IR(h) = molecular target: T3, IR(h) (Homo sapiens, UniProt P06213); details: read-out: Inhibition(%) @ 1 µM RK-019
T3 construct: purchased Eurofins Discovery Services (KinaseProfiler)
Summary of the method: as §1

LIMK1(h) = molecular target: T4, LIMK1(h) (Homo sapiens, UniProt P53667); details: read-out: Inhibition(%) @ 1 µM RK-019
T4 construct: purchased Eurofins Discovery Services (KinaseProfiler)
Summary of the method: as §1

SAPK2b(h) = molecular target: T5, SAPK2b(h) (Homo sapiens, UniProt Q15759); details: read-out: Inhibition(%) @ 1 µM RK-019
T5 construct: purchased Eurofins Discovery Services (KinaseProfiler)
Summary of the method: as §1

JAK3(h) = molecular target: T6, JAK3(h) (Homo sapiens, UniProt P52333); details: read-out: Inhibition(%) @ 1 µM RK-019
T6 construct: purchased Eurofins Discovery Services (KinaseProfiler)
Summary of the method: as §1

MAP4K4(h) = molecular target: T7, MAP4K4(h) (Homo sapiens, UniProt O95819); details: read-out: Inhibition(%) @ 1 µM RK-019
T7 construct: purchased Eurofins Discovery Services (KinaseProfiler)
T7 sequence (O95819 whole entry): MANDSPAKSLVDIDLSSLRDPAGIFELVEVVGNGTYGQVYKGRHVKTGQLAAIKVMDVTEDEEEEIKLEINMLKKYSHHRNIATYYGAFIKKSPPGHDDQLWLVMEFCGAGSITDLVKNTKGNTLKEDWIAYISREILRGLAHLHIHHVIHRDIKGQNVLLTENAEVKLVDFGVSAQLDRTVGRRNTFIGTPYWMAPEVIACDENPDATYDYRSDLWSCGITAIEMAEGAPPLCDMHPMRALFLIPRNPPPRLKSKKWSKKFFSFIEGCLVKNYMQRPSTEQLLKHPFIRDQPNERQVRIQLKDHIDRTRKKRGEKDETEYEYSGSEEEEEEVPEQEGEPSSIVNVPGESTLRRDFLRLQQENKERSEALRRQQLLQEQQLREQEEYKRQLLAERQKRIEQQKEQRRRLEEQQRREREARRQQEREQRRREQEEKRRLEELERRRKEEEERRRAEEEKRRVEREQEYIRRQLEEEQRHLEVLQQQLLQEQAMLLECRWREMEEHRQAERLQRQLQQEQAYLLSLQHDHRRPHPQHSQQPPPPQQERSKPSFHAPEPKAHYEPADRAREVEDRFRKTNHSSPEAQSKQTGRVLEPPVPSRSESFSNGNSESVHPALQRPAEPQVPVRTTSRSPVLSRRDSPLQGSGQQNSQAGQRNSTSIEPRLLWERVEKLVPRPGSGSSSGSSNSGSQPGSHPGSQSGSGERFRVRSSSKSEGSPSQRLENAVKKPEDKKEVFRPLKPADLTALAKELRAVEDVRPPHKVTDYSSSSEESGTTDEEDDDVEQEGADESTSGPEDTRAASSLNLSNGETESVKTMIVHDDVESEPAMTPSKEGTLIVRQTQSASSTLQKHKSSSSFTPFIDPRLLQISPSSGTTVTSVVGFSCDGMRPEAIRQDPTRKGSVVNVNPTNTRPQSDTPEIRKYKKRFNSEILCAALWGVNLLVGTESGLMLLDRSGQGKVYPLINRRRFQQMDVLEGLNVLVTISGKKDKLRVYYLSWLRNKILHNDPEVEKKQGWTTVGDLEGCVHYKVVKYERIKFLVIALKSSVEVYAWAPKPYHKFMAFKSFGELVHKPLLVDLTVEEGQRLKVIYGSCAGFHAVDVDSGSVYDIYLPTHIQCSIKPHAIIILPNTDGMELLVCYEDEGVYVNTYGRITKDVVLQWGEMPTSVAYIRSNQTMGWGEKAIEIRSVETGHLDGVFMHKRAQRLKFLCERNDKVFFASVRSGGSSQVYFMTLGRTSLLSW
Summary of the method: as §1

IRAK1(h) = molecular target: T8, IRAK1(h) (Homo sapiens, UniProt P51617); details: read-out: Inhibition(%) @ 1 µM RK-019
T8 construct: purchased Eurofins Discovery Services (KinaseProfiler)
Summary of the method: as §1

TSSK4(h) = molecular target: T9, TSSK4(h) (Homo sapiens, UniProt Q6SA08); details: read-out: Inhibition(%) @ 1 µM RK-019
T9 construct: purchased Eurofins Discovery Services (KinaseProfiler)
Summary of the method: as §1

EphA8(h) = molecular target: T10, EphA8(h) (Homo sapiens, UniProt P29322); details: read-out: Inhibition(%) @ 1 µM RK-019
T10 construct: purchased Eurofins Discovery Services (KinaseProfiler)
Summary of the method: as §1

ULK1(h) = molecular target: T11, ULK1(h) (Homo sapiens, UniProt O75385); details: read-out: Inhibition(%) @ 1 µM RK-019
T11 construct: purchased Eurofins Discovery Services (KinaseProfiler)
T11 sequence (O75385 whole entry): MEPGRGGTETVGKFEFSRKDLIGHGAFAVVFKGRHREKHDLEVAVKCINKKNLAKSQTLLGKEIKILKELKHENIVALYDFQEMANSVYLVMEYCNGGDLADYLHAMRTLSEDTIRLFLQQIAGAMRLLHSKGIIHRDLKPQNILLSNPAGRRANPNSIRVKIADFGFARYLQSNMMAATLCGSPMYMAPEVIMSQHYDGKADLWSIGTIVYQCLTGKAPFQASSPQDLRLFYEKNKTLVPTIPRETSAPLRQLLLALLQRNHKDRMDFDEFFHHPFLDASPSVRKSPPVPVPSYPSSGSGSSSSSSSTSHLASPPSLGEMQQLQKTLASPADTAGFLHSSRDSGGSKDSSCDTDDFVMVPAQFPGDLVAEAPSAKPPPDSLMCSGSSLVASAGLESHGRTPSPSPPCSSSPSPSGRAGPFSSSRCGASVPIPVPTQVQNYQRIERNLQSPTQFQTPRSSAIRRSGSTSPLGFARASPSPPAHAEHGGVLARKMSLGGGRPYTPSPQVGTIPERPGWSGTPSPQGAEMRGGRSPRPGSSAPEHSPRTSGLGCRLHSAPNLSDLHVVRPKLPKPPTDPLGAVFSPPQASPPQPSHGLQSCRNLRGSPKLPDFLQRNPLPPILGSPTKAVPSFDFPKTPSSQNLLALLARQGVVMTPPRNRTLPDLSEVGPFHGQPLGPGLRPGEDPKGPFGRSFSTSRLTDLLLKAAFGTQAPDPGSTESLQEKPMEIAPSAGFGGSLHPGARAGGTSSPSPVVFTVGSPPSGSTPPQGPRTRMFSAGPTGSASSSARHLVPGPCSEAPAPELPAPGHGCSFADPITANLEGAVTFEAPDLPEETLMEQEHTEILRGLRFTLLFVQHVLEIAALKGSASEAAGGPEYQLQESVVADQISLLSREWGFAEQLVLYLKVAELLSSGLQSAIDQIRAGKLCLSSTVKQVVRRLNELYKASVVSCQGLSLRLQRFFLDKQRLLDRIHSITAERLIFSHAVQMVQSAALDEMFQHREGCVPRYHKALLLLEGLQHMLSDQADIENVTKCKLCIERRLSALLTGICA
Summary of the method: as §1

CaMKIIγ(h) = molecular target: T12, CaMKIIγ(h) (Homo sapiens, UniProt Q13555); details: read-out: Inhibition(%) @ 1 µM RK-019
T12 construct: purchased Eurofins Discovery Services (KinaseProfiler)
Summary of the method: as §1

ACTR2(h) = molecular target: T13, ACTR2(h) (Homo sapiens, UniProt P27037); details: read-out: Inhibition(%) @ 1 µM RK-019
T13 construct: purchased Eurofins Discovery Services (KinaseProfiler)
Summary of the method: as §1

Yes(h) = molecular target: T14, Yes(h) (Homo sapiens, UniProt P07947); details: read-out: Inhibition(%) @ 1 µM RK-019
T14 construct: purchased Eurofins Discovery Services (KinaseProfiler)
Summary of the method: as §1

EGFR(T790M,L858R)(h) = molecular target: T15, EGFR(T790M,L858R)(h) (Homo sapiens, UniProt P00533, L858R/T790M); details: read-out: Inhibition(%) @ 1 µM RK-019
T15 construct: purchased Eurofins Discovery Services (KinaseProfiler)
Summary of the method: as §1

Blk(h) = molecular target: T16, Blk(h) (Homo sapiens, UniProt P51451); details: read-out: Inhibition(%) @ 1 µM RK-019
T16 construct: purchased Eurofins Discovery Services (KinaseProfiler)
Summary of the method: as §1

Src(1-530)(h) = molecular target: T17, Src(1-530)(h) (Homo sapiens, UniProt P12931); details: read-out: Inhibition(%) @ 1 µM RK-019
T17 construct: purchased Eurofins Discovery Services (KinaseProfiler)
Summary of the method: as §1

TAO3(h) = molecular target: T18, TAO3(h) (Homo sapiens, UniProt Q9H2K8); details: read-out: Inhibition(%) @ 1 µM RK-019
T18 construct: purchased Eurofins Discovery Services (KinaseProfiler)
Summary of the method: as §1

p70S6K(h) = molecular target: T19, p70S6K(h) (Homo sapiens, UniProt P23443); details: read-out: Inhibition(%) @ 1 µM RK-019
T19 construct: purchased Eurofins Discovery Services (KinaseProfiler)
Summary of the method: as §1

Flt3(D835Y)(h) = molecular target: T20, Flt3(D835Y)(h) (Homo sapiens, UniProt P36888, D835Y); details: read-out: Inhibition(%) @ 1 µM RK-019
T20 construct: purchased Eurofins Discovery Services (KinaseProfiler)
Summary of the method: as §1

AMPKα2(h) = molecular target: T21, AMPKα2(h) (Homo sapiens, UniProt P54646); details: read-out: Inhibition(%) @ 1 µM RK-019
T21 construct: purchased Eurofins Discovery Services (KinaseProfiler)
Summary of the method: as §1

ErbB4(h) = molecular target: T22, ErbB4(h) (Homo sapiens, UniProt Q15303); details: read-out: Inhibition(%) @ 1 µM RK-019
T22 construct: purchased Eurofins Discovery Services (KinaseProfiler)
Summary of the method: as §1

PAK5(h) = molecular target: T23, PAK5(h) (Homo sapiens, UniProt Q9P286); details: read-out: Inhibition(%) @ 1 µM RK-019
T23 construct: purchased Eurofins Discovery Services (KinaseProfiler)
Summary of the method: as §1

RIPK2(h) = molecular target: T24, RIPK2(h) (Homo sapiens, UniProt O43353); details: read-out: Inhibition(%) @ 1 µM RK-019
T24 construct: purchased Eurofins Discovery Services (KinaseProfiler)
Summary of the method: as §1

Lyn(h) = molecular target: T25, Lyn(h) (Homo sapiens, UniProt P07948)
T25 construct: purchased Eurofins Discovery Services (KinaseProfiler)
T25 sequence (P07948 whole entry): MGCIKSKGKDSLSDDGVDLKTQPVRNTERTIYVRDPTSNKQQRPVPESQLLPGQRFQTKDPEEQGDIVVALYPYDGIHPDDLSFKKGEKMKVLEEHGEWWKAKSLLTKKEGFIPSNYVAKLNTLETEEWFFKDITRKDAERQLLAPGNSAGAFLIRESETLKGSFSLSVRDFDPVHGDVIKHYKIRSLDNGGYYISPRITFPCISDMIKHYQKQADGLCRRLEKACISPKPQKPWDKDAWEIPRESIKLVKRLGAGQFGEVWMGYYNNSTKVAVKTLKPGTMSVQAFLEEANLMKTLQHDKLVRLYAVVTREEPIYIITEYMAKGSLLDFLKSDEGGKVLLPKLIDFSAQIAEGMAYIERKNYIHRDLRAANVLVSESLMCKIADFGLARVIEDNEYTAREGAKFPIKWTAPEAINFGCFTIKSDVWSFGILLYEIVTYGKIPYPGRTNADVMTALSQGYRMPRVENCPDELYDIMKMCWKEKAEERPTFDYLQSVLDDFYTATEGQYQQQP
Summary of the method: as §1

JNK3(h) = molecular target: T26, JNK3(h) (Homo sapiens, UniProt P53779); details: read-out: Inhibition(%) @ 1 µM RK-019
T26 construct: purchased Eurofins Discovery Services (KinaseProfiler)
Summary of the method: as §1

SRPK2(h) = molecular target: T27, SRPK2(h) (Homo sapiens, UniProt P78362); details: read-out: Inhibition(%) @ 1 µM RK-019
T27 construct: purchased Eurofins Discovery Services (KinaseProfiler)
Summary of the method: as §1

CaMKIIδ(h) = molecular target: T28, CaMKIIδ(h) (Homo sapiens, UniProt Q13557); details: read-out: Inhibition(%) @ 1 µM RK-019
T28 construct: purchased Eurofins Discovery Services (KinaseProfiler)
T28 sequence (Q13557 whole entry): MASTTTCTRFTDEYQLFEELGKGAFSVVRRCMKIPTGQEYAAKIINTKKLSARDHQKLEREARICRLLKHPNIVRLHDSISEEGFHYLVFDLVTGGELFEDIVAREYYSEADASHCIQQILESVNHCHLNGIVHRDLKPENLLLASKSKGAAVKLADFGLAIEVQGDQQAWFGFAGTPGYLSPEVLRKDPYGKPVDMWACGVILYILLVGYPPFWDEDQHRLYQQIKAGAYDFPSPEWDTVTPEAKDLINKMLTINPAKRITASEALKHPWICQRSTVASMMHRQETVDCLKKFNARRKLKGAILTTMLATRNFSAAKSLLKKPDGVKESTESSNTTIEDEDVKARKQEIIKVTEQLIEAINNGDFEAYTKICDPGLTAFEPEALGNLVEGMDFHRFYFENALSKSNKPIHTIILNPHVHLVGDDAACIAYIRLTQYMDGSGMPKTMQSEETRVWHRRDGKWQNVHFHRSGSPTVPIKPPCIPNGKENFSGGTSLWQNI
Summary of the method: as §1

PRKG2(h) = molecular target: T29, PRKG2(h) (Homo sapiens, UniProt Q13237); details: read-out: Inhibition(%) @ 1 µM RK-019
T29 construct: purchased Eurofins Discovery Services (KinaseProfiler)
Summary of the method: as §1

MST1(h) = molecular target: T30, MST1(h) (Homo sapiens, UniProt Q13043); details: read-out: Inhibition(%) @ 1 µM RK-019
T30 construct: purchased Eurofins Discovery Services (KinaseProfiler)
Summary of the method: as §1

CDK2/cyclinA(h) = molecular target: T31, CDK2/cyclinA(h) (Homo sapiens, UniProt P24941); details: read-out: Inhibition(%) @ 1 µM RK-019
T31 construct: purchased Eurofins Discovery Services (KinaseProfiler)
Summary of the method: as §1

PIP5K1g(h) = molecular target: T32, PIP5K1g(h) (Homo sapiens, UniProt O60331); details: read-out: Inhibition(%) @ 1 µM RK-019
T32 construct: purchased Eurofins Discovery Services (KinaseProfiler)
T32 sequence (O60331 whole entry): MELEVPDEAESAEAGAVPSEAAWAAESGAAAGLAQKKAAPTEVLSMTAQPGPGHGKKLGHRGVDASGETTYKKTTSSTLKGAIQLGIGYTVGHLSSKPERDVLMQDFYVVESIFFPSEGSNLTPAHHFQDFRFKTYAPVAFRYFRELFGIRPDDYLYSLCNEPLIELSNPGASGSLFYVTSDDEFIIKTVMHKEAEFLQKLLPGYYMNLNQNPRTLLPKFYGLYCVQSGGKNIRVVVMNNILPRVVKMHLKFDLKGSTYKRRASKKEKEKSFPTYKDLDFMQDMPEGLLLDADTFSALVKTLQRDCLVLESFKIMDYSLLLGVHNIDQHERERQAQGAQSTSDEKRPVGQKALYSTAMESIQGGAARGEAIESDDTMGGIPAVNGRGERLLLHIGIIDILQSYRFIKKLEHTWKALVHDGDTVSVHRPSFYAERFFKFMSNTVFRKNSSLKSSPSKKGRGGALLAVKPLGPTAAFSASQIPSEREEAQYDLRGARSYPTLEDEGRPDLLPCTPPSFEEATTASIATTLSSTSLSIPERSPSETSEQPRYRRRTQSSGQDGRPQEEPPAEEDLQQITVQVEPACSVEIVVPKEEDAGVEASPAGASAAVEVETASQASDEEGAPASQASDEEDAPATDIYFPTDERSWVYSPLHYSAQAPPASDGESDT
Summary of the method: as §1

EGFR(h) = molecular target: T33, EGFR(h) (Homo sapiens, UniProt P00533); details: read-out: Inhibition(%) @ 1 µM RK-019
T33 construct: purchased Eurofins Discovery Services (KinaseProfiler)
Summary of the method: as §1

MLK1(h) = molecular target: T34, MLK1(h) (Homo sapiens, UniProt P80192); details: read-out: Inhibition(%) @ 1 µM RK-019
T34 construct: purchased Eurofins Discovery Services (KinaseProfiler)
T34 sequence (P80192 whole entry): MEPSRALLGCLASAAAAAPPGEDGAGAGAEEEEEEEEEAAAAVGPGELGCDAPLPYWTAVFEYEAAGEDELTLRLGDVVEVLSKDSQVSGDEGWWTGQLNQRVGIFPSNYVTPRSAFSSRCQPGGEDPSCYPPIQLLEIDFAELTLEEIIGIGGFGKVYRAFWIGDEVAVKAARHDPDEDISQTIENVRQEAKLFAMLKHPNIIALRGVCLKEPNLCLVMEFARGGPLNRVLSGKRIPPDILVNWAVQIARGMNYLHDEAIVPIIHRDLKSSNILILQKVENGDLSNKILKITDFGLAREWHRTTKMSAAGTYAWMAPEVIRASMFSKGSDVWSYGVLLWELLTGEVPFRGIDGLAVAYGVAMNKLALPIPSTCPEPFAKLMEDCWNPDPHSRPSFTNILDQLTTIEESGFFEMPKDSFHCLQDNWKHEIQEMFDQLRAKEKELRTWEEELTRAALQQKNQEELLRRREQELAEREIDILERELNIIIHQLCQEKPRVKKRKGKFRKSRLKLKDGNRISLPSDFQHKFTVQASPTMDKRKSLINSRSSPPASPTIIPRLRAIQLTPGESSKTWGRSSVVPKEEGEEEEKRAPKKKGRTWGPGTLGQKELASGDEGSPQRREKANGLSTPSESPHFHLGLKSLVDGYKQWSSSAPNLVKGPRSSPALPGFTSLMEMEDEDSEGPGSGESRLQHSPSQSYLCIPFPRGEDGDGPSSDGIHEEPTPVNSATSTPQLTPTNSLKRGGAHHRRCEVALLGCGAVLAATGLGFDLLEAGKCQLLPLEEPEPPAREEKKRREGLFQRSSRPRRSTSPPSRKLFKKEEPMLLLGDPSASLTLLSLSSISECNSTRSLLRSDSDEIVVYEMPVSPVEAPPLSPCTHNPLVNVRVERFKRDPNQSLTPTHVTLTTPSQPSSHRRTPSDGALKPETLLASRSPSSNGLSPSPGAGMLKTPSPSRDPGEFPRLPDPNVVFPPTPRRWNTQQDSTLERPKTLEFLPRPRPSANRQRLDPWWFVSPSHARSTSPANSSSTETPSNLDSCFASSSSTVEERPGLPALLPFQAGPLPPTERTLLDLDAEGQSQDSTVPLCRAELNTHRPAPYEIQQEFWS
Summary of the method: as §1

[1] = molecular target: T35, PI3 Kinase (p110b/p85b)(m) (Mus musculus, UniProt Q8BTI9); details: read-out: Inhibition(%) @ 1 µM RK-019
T35 construct: purchased Eurofins Discovery Services (KinaseProfiler)

CK1γ2(h) = molecular target: T36, CK1γ2(h) (Homo sapiens, UniProt P78368); details: read-out: Inhibition(%) @ 1 µM RK-019
T36 construct: purchased Eurofins Discovery Services (KinaseProfiler)
Summary of the method: as §1

eEF-2K(h) = molecular target: T37, eEF-2K(h) (Homo sapiens, UniProt O00418); details: read-out: Inhibition(%) @ 1 µM RK-019
T37 construct: purchased Eurofins Discovery Services (KinaseProfiler)
Summary of the method: as §1

`COc1cc(OC)cc(N(CCN[C@H](C)CO)c2ccc3ncc(-c4cnn(C)c4)c(=O)n3c2)c1` [RK-019, (R)-7-((3,5-dimethoxyphenyl) (2-((1-hydroxypropan-2-yl)amino)ethyl)amino)-3-(1-methyl-1H-pyrazol-4-yl)-4H-pyrido [1,2-a]pyrimidin-4-one] gave an activity at 1 µM (CaMKI(h)) of 101%, an activity at 1 µM (MLK2(h)) of 103% and an activity at 1 µM (IR(h)) of 118%. For the same compound, the activity at 1 µM (LIMK1(h)) was 103%, the activity at 1 µM (SAPK2b(h)) was 94% and the activity at 1 µM (JAK3(h)) was 97%. The activity at 1 µM (MAP4K4(h)) was 82%, the activity at 1 µM (IRAK1(h)) was 103% and the activity at 1 µM (TSSK4(h)) was 106%. It also gave an activity at 1 µM (EphA8(h)) of 59%, an activity at 1 µM (ULK1(h)) of 105% and an activity at 1 µM (CaMKIIγ(h)) of 106%. It also gave an activity at 1 µM (ACTR2(h)) of 85%, an activity at 1 µM (Yes(h)) of 29% and an activity at 1 µM (EGFR(T790M,L858R)(h)) of 92%. It also gave an activity at 1 µM (Blk(h)) of 70%, an activity at 1 µM (Src(1-530)(h)) of 45% and an activity at 1 µM (TAO3(h)) of 100%. It also gave an activity at 1 µM (p70S6K(h)) of 119%, an activity at 1 µM (Flt3(D835Y)(h)) of 86% and an activity at 1 µM (AMPKα2(h)) of 109%. It also gave an activity at 1 µM (ErbB4(h)) of 105%, an activity at 1 µM (PAK5(h)) of 101% and an activity at 1 µM (RIPK2(h)) of 46%. It also gave an inhibition at 1 µM (Lyn(h); LYN, 1 µM, read-out: inhibition (hit in panel)) greater than 90%, an activity at 1 µM (Lyn(h); Lyn(h), read-out: Inhibition(%) @ 1 µM RK-019) of 6% and an activity at 1 µM (JNK3(h)) of 91%. The activity at 1 µM (SRPK2(h)) was 134%, the activity at 1 µM (CaMKIIδ(h)) was 108% and the activity at 1 µM (PRKG2(h)) was 100%. It also gave an activity at 1 µM (MST1(h)) of 121%, an activity at 1 µM (CDK2/cyclinA(h)) of 115% and an activity at 1 µM (PIP5K1g(h)) of 97%. It also gave an activity at 1 µM (EGFR(h)) of 119%, an activity at 1 µM (MLK1(h)) of 99% and an activity at 1 µM [1] of 99%. It also gave an activity at 1 µM (CK1γ2(h)) of 97% and an activity at 1 µM (eEF-2K(h)) of 97%.
